Reference: patent publication US10975056B2 (GlaxoSmithKline Intellectual Property Development Limited, priority 2016, dated 2021)

Columns and labels:
DNMT1 = DNMT1 (Homo sapiens, UniProt P26358); assay: DNMT1 biochemical activity, breaklight assay and/or SPA assay; conditions: binned activity in either the breaklight or the SPA assay
[1] = test system: erythroid progenitor cells (EPCs); assay: Fetal hemoglobin (HbF) ELISA in day 7 erythroid progenitor cells; format: cell-based, human; conditions: Homo sapiens, Erythroid progenitor cell, HbF ELISA, day 7 EPCs, 5 days; read-out: EPC ELISA (pEC50 category) (converted);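 also: for fetal hemoglobin induction normalized to vehicle-treated cells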
Procedure, shortened: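 CD34+-derived EPCs, 1,000 cells/well, rhEPO 3 U/mL; Compound A 22-pt series, […]; 5 d, 37° C, 5% CO2. Freeze-thaw lysis, anti-HbF capture + HRP anti-HbF, TMB, OD450. Normalized to DMSO wells.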

DNMT1, sequence (P26358 whole entry, looked up): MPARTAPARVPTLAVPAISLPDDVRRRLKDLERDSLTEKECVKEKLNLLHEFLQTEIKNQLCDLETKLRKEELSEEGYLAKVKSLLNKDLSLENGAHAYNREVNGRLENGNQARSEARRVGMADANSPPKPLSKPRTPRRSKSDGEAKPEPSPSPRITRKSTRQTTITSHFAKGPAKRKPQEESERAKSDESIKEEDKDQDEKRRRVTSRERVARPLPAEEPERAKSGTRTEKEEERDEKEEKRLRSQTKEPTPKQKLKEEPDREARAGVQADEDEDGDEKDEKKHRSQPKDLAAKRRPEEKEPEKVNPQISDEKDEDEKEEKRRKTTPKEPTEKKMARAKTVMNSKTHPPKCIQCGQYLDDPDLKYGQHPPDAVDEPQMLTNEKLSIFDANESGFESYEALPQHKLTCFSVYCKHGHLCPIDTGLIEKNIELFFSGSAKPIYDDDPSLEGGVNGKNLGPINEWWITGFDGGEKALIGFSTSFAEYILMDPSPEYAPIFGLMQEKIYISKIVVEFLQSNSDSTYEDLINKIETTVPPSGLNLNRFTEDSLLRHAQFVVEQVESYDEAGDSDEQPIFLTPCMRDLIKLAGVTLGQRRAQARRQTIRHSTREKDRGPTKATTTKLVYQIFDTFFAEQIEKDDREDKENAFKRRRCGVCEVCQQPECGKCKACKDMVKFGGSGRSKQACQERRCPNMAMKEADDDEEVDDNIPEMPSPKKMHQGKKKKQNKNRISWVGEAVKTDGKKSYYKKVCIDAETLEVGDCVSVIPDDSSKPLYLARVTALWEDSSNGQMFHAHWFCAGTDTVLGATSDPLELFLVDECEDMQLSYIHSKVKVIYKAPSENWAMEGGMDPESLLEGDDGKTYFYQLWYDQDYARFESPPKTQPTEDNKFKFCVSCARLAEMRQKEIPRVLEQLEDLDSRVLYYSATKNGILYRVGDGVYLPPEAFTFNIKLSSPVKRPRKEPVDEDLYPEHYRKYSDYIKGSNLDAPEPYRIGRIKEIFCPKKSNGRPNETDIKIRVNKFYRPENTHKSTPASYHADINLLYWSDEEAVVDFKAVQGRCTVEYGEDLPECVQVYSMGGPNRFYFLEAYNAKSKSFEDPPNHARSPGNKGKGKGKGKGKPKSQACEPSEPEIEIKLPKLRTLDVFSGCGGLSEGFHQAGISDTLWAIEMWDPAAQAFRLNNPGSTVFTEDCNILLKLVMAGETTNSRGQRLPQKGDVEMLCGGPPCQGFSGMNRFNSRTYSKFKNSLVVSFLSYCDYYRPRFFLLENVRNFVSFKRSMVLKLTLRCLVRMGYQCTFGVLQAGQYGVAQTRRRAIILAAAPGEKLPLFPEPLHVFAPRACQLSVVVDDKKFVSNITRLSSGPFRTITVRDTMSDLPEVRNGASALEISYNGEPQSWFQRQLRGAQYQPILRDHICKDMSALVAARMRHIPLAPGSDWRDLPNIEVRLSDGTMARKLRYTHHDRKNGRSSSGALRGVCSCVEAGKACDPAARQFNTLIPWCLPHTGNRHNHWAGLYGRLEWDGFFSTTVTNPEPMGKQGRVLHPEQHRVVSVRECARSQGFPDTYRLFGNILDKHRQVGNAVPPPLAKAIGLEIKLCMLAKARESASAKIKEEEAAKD

Row | Structure (SMILES) | DNMT1 BioChemical (pIC50 category) (DNMT1) | EC50 [1]
1 | CCc1c(C#N)c(SCc2ccc(N(C)S(C)(=O)=O)cc2)nc(N(C)CCNCCOC)c1C#N [Example 480] | D (Category D: ≥6.5) | 316 to 1000 nM
2 | CCc1c(C#N)c(SCc2ccc(N(C)S(C)(=O)=O)cc2)nc(N(C)CCNC2(C)CC2)c1C#N [Example 481, N-(4-(((3,5-dicyano-4-ethyl-6-(methyl(2-((1-methylcyclopropyl)amino)ethyl)amino)pyridin-2-yl)thio)methyl)phenyl)-N-methylmethanesulfonamide] | D (Category D: ≥6.5) | < 316 nM
3 | CCc1c(C#N)c(SCc2ccc(N(C)S(C)(=O)=O)cc2)nc(N(C)CCN(C)C)c1C#N [Example 482, N-(4-(((3,5-dicyano-6-((2-(dimethylamino)ethyl)(methyl)amino)-4-ethylpyridin-2-yl)thio)methyl)phenyl)-N-methylmethanesulfonamide] | D (Category D: ≥6.5) | < 316 nM
4 | CCc1c(C#N)c(SC(C(N)=O)c2ccccc2)nc(N(C)CCN(C)CC)c1C#N (stereo not shown) [Example 483, 2-(3,5-dicyano-4-ethyl-6-((2-(ethyl(methyl)amino)ethyl)(methyl)amino)pyridin-2-ylthio)-2-phenylacetamide] | D (Category D: ≥6.5) | < 316 nM
5 | CCc1c(C#N)c(SCc2ccc(N(C)S(C)(=O)=O)cc2)nc(N(C)CCN)c1C#N [Example 484, N-(4-(((6-((2-aminoethyl)(methyl)amino)-3,5-dicyano-4-ethylpyridin-2-yl)thio)methyl)phenyl)-N-methylmethanesulfonamide] | D (Category D: ≥6.5) | < 316 nM
6 | CCc1c(C#N)c(SC(C(N)=O)c2ccccc2)nc(N(C)CCN2[C@H](C)CC[C@H]2C)c1C#N (stereo partly drawn) [Example 485, 2-((3,5-dicyano-6-((2-((2R,5R)-2,5-dimethylpyrrolidin-1-yl)ethyl)(methyl)amino)-4-ethylpyridin-2-yl)thio)-2-phenylacetamide] | D (Category D: ≥6.5) | < 316 nM

Second part, the compound after the results:

Row | DNMT1 BioChemical (pIC50 category) (DNMT1) | EC50 [1] | Structure (SMILES)
7 | D (Category D: ≥6.5) | < 316 nM | CCc1c(C#N)c(SC(C(N)=O)c2ccccc2)nc(N(C)CCN2CC[C@H](O)C2)c1C#N (stereo partly drawn) [Example 486, 2-(3,5-dicyano-4-ethyl-6-((2-((S)-3-hydroxypyrrolidin-1-yl)ethyl)(methyl)amino)pyridin-2-ylthio)-2-phenylacetamide]
8 | D (Category D: ≥6.5) | < 316 nM | CCc1c(C#N)c(SC(C(N)=O)c2ccccc2)nc(N2CCC(NC(C)(C)C(=O)OC)CC2)c1C#N (stereo not shown) [Example 487, methyl 2-((1-(6-((2-amino-2-oxo-1-phenylethyl)thio)-3,5-dicyano-4-ethylpyridin-2-yl)piperidin-4-yl)amino)-2-methylpropanoate]
9 | D (Category D: ≥6.5) | < 316 nM | CCc1c(C#N)c(SC(C(N)=O)c2ccccc2)nc(N(C)CCNCC(C)(C)C)c1C#N (stereo not shown) [Example 488, 2-((3,5-dicyano-4-ethyl-6-(methyl(2-(neopentylamino)ethyl)amino)pyridin-2-yl)thio)-2-phenylacetamide]
10 | D (Category D: ≥6.5) | < 316 nM | CCc1c(C#N)c(SC(C(N)=O)c2ccccc2)nc(N(C)CCNC2(C)CC2)c1C#N (stereo not shown) [Example 489, 2-(3,5-dicyano-4-ethyl-6-(methyl(2-(1-methylcyclopropylamino)ethyl)amino)pyridin-2-ylthio)-2-phenylacetamide]
11 | D (Category D: ≥6.5) | 316 to 1000 nM | CCc1c(C#N)c(SC(C(N)=O)c2ccccc2)nc(N(C)CCN2[C@@H](C)CC[C@@H]2C)c1C#N (stereo partly drawn) [Example 490, 2-((3,5-dicyano-6-((2-((2S,5S)-2,5-dimethylpyrrolidin-1-yl)ethyl)(methyl)amino)-4-ethylpyridin-2-yl)thio)-2-phenylacetamide]
